Data from publication PMC4554797 (Bioorganic & medicinal chemistry, 2015).
“Also recorded” adds a separate entry of the source.

Key:
Melanoma tumors = assay: Tumor specimen analysis; assay type: in vivo, athymic nude mice
ATX [1] = target: T1, ATX (Homo sapiens, UniProt Q13822); assay: ATX Inhibitor Screening Kit, FS-3 hydrolysis; assay type: biochemical; conditions: for ATX inhibition (in words): dose-response mode, highest test concentration 10 μM
ATX [2] = assay: Serum analysis, mouse ENPP2 ELISA; assay type: in vivo; conditions: at necropsy
[3] = system: multiple cancer cell lines; assay: Cell viability assay; assay type: cell-based, human; conditions: 48 h; for Effect on cell viability (in words): HT-29, PC-3, MDA-MB-231, MeWo, SB-2, OVCAR-3, SKOV-3
KC/CXCL1 = assay: Serum analysis, mouse Bio-Plex 23-Plex panel; assay type: in vivo; conditions: at necropsy; p<0.05 at 20 mg/kg, p<0.001 at 50-40 mg/kg vs. control
ATX [4] = target: T1, ATX; assay: Dilution/dialysis washout experiment, ATX activity by FS-3; assay type: biochemical; conditions: pre-incubated two minutes, over 1000-fold dilution over approximately one hour
MeWo cells = assay: Animal model of melanoma; assay type: in vivo, athymic nude mice; conditions: for Tumor growth vs. DMF control: 30 mg/kg i.p. three times a week
OVCAR-3 = assay: Wound healing assay; assay type: cell-based, human; conditions: OVCAR-3, 5 μM
VEGF = assay: Serum analysis, circulating VEGF; assay type: in vivo, mouse; conditions: data not shown
MDA-MB-231 = assay: Wound healing assay; assay type: cell-based, human; conditions: MDA-MB-231, 5 μM
[5] = system: MDA-MB-231, OVCAR-3, SKOV-3 and MeWo cells; assay: Wound healing assay, all cell lines examined; assay type: cell-based, human
MeWo = assay: Cell viability assay; assay type: cell-based, human; conditions: MeWo cells, 48 h, over the concentrations tested

C=C(CCCCCCCCCCCCCCCC)S(=O)(=O)CCC[N+](C)(C)C.[Cl-] [CVS-16, N,N,N-trimethyl-3-(octadec-1-en-2-ylsulfonyl)propan-1-aminium chloride]
Specimens with mixed areas of viable and necrotic endothelial cells (Melanoma tumors; 20 mg/kg): 50% | Specimens with only viable endothelial cells (Melanoma tumors; 20 mg/kg): 50% | Percent of necrotic tissue within the tumor (Melanoma tumors; 40-50 mg/kg, p<0.01 vs. control, p<0.05 vs. 20 mg/kg): significantly more necrosis than control | Ki-67 staining of tumor sections (Melanoma tumors; data not shown): no significant differences | ATX inhibition after short pre-incubation (ATX [1]; pre-incubating ATX with compound for 2 minutes): complete inhibition | Circulating ATX in serum vs. control (ATX [2]; CVS-16 treated animals, p<0.05): significant reduction | Concentration range of significant activity on cell viability [3]: 0.5 to 5 µM | Effect on cell viability (in words) [3]: reduced cell viability to some extent | Serum KC/CXCL-1 (KC/CXCL1): significant reduction | ATX inhibition after washout (ATX [4]): did not decrease the ATX inhibition | Tumor volume vs. control (MeWo cells; 20 mg/kg i.p. three times a week): no significant difference | Time over which inhibition of tumor volume was sustained (MeWo cells; 40-50 mg/kg, days after the injection of tumor cells): approximately 53 days | Tumor sizes vs. control (MeWo cells; 50-40 mg/kg i.p. three times a week, day 57 (p<0.05) and day 65 (p<0.001)): achieved statistical significance | Melanoma progression in in vivo tumor model (MeWo cells; dose not given at this place): significantly inhibited melanoma progression | Reduction of wound healing (OVCAR-3): over 75% | Circulating VEGF vs. controls (VEGF): did not observe any change | Deaths (50 mg/kg group (n=5)): one mouse | Clinical condition of mice (50 mg/kg i.p., 46th day of the study): severely dehydrated | Reduction of wound healing (MDA-MB-231): over 75% | Wound healing (in words) ([5]; 5 μM, 24 h, vs. untreated): inhibited wound healing | Wound closure in combination with LPA ([5]; CVS-16 5 μM combined with LPA (18:1, 1 μM), in most cases): LPA was not able to overcome the inhibition

O=C1S/C(=C\c2ccc(OCc3cccc(B(O)O)c3)cc2)C(=O)N1Cc1ccc(F)cc1 [HA-130, reference compound]
Circulating ATX in serum vs. control (ATX [2]; 30 mg/kg): no significant difference | Tumor growth vs. DMF control (MeWo cells): neither of these ATX inhibitors reached statistical significance; also recorded: did not impact tumor progression

O=C(CCN1CCN(C(=O)OCc2cc(Cl)cc(Cl)c2)CC1)c1ccc2[nH]c(=O)oc2c1 [PF-8380, reference compound]
Circulating ATX in serum vs. control (ATX [2]; 30 mg/kg): no significant difference | Tumor growth vs. DMF control (MeWo cells): neither of these ATX inhibitors reached statistical significance; also recorded: did not impact tumor progression

C=C(CCCCCCCCCCCCCCCC)S(=O)(=O)c1ccccc1 [PVS-16]
ATX inhibition (in words) (ATX [1]): did not inhibit ATX | ATX inhibition (in words) (ATX [1]; listed as PVS-16 (21)): no binding effect | Effect on cell viability (in words) [3]: little effect on cell viability | Effect on cell viability (in words) ([3]; listed as PVS-16 (21)): most cell types were unaffected | ATX inhibition after washout (ATX [4]): no evidence of inhibiting ATX activity

CN(C)/N=N/c1[nH]cnc1C(N)=O [dacarbazine]
Cell viability reached (MeWo): ≥ 50%

CC(=O)O[C@H]1C(=O)[C@@]2(C)[C@H]([C@H](OC(=O)c3ccccc3)[C@]3(O)C[C@H](OC(=O)[C@H](O)[C@@H](NC(=O)c4ccccc4)c4ccccc4)C(C)=C1C3(C)C)[C@]1(OC(C)=O)CO[C@@H]1C[C@@H]2O [paclitaxel]
Cell viability reached (MeWo): ≥ 50%

CC[C@]1(O)C[C@H]2CN(CCc3c([nH]c4ccccc34)[C@@](C(=O)OC)(c3cc4c(cc3OC)N(C=O)[C@H]3[C@@](O)(C(=O)OC)[C@H](OC(C)=O)[C@]5(CC)C=CCN6CC[C@]43[C@@H]65)C2)C1 [vincristine]
Cell viability reached (MeWo): ≥ 50%
